Experimental data from patent US20240277711A1, “COMPOUNDS FOR THE TREATMENT OF GLIOBLASTOMA” (Merck Patent GmbH, priority 2021, published 2024).

Tests used:
[1] = system: glioblastoma; settings: in vivo; cited from earlier work
[2] = system: mouse glioma cell lines; test: Acute growth inhibition assay (MTT) in mouse glioma cell lines; assay type: cell-based; settings: concentrations up to 1 μM
[3] = system: glioma cells; test: Sensitization to irradiation in vitro (clonogenic survival); assay type: cell-based, mouse
[4] = system: SMA-560 gliomas; test: SMA-560 glioma in immunodeficient Rag1−/− mice; assay type: in vivo, mouse; settings: tepotinib 100 mg/kg daily + 10 Gy
[5] = system: mouse glioma cell lines; test: Clonogenic survival (clonogenicity) assay in mouse glioma cell lines; assay type: cell-based; settings: concentrations up to 1 μM
[6] = system: GL-261 met knock-out cells; test: GL-261 met knock-out glioma in wildtype mice; assay type: in vivo, mouse; settings: MET disrupted in tumor, tepotinib + 10 Gy
Experimental: (§1) Kaplan-Meier survival curves are shown. B, C. […] B. Kaplan-Meier survival curves were analyzed via log-rank test. C. Mice surviving in (B) were re-challenged after 13 weeks after initial tumor cell injection with GL-261 cell implantation into the contralateral hemisphere. Naïve mice implanted with GL-261 cells were used as controls. Kaplan-Meier survival curves are shown. D, E. GL-261 met knock-out cells were intracranially implanted into wildtype C57/B16 mice (D) or GL-261 wildtype cells were intracranially implanted into C57/B16 Rag1−/− mice (E). […] F. Analysis of median survival between treatment groups.
Knockout clones were generated as described (Ran et al., 2013; Machado et al., 2019). Briefly, two MET-specific guide RNAs (5′-[…]-3′ and 5′-[…]-3′) were cloned into pSpCas9(BB)-2A-GFP and lipofectamine (Thermo) was used to co-transfect both plasmids. […]
All in vitro and in vivo experiments reported here were performed in biological replicates, i.e., in independent experiments and with different passage numbers of cell lines. Statistical significance was assessed by two-sided unpaired t-test or two-way ANOVA with Bonferroni post-testing (GraphPad Prism). Tumor size was analyzed using the Mann-Whitney U non-parametric test. Survival was analyzed using a Kaplan-Meier survival plot followed by a log-rank (Mantel-Cox) test. […]

[7] = system: GL-261 glioma; test: GL-261 glioma in Rag1−/− mice; assay type: in vivo, mouse; settings: tepotinib + 10 Gy
Experimental: as §1
(§2) All in vitro and in vivo experiments reported here were performed in biological replicates, i.e., in independent experiments and with different passage numbers of cell lines. Statistical significance was assessed by two-sided unpaired t-test or two-way ANOVA with Bonferroni post-testing (GraphPad Prism). Tumor size was analyzed using the Mann-Whitney U non-parametric test. Survival was analyzed using a Kaplan-Meier survival plot followed by a log-rank (Mantel-Cox) test. Differences were considered statistically significant when the p value was below 0.05.

[8] = system: GL-261 glioma; test: Orthotopic syngeneic GL-261 glioma model in wildtype mice; assay type: in vivo, mouse
Experimental: as §1, §2

[9] = system: mouse cytokines; test: Proteome profiler cytokine array of SMA-560 tumor lysates ex vivo; assay type: in vivo
Experimental: In A, raw data are expressed as pixel density measured by Image J. In B, fold-changes indicate down-regulation (left) or up-regulation (right) versus control tumors. A difference down or up of 2-fold versus control was used as cut-off to assign a target to any group.
For the simultaneous determination of relative levels of mouse cytokines in vivo, the Mouse XL Cytokine Array Kit from R&D Systems was used (ARY028, Minneapolis, MN). Tissue lysates were prepared by electric homogenizer in ice-cold lysis buffer and supplemented with protease inhibitor cocktail, followed by centrifugation to remove cellular debris; 150 μg protein was used for each tumor sample and nitrocellulose membrane (control, monotherapies, combination therapy). To compare the proportion of protein levels in each tumor specimen, the quantification of pixel density of each spot of the array was performed using Image J (version 1.32j) software (National Institutes of Health, Bethesda, MD, http://rsb.info.nih.gov/ij/).

[10] = system: murine glioma cell invasiveness; test: Murine glioma cell invasiveness in vitro without or with irradiation; assay type: cell-based, mouse; settings: without or with irradiation (2 Gy, 8 Gy)
Excerpt: Next, we evaluated the motogenic activity of HGF/MET in response to irradiation in vitro. Low-dose irradiation (2 Gy) increased invasiveness in SMA-540 and SMA-560 cells whereas high-dose irradiation (8 Gy) reduced invasiveness in SMA-497 and SMA-560 cells.

[11] = system: ligand-independent Hs746T tumors; settings: before tumor became resistant and progressed; cited from earlier work
[12] = system: SMA-560 gliomas; test: Orthotopic syngeneic SMA-560 glioma model in vivo (survival, histology); set-up: species or system mouse
Experimental: B. Kaplan-Meier survival curve. C. […] Sections were counterstained with hematoxylin (blue).
Sections (8 μm thick) of tumor-bearing cryopreserved brains were prepared. The mean tumor size was determined by the largest tumor area in the horizontal plane on hematoxylin and eosin (H&E)-stained sections by multiplying the longest perpendicular diameters from a low-magnification (2.5×) image. Brain sections were immunostained with Ki-67 antibody (clone SP6, Epitomics, Burlingame, CA), anti-mouse CD31 antibody (clone MEC 13.3, BD Pharmingen, Franklin Lakes, NJ), anti-CD45 antibody (clone 30-F11; BioLegend), anti-CD3 (clone 17A2; BD Biosciences, San Jose, CA) or anti-CD11b (clone M1/70; BD Biosciences) and histofine simple stain mouse max pro anti-rabbit secondary antibody (Nichirei Biosciences, Tokyo, Japan) to determine proliferation. Anti-rat N-Histofine Simple Stain Mouse MAX PO (Nichirei Biosciences) and DAB chromogen were used to stain blood vessels. The percentage of Ki-67-positive tumor nuclei and the mean number of CD31-positive intratumoral vessels per high power field (×40 objective) were calculated using three randomly selected different microscopic fields of each section for three 3 mice per group. Alternatively, DAB-positive signals were quantified using the ImageJ software (https://imagej.nih.gov/) (Crowe and Yue, 2019).
as §2

[13] = system: HGF-dependent U87MG tumors; settings: before tumor became resistant and progressed; cited from earlier work
[14] = combination group (tepotinib + radiotherapy)

onartuzumab: MET antibody
efficacy outcome in glioblastoma [1]: negative outcomes

AMG-102: HGF antibody
efficacy outcome in glioblastoma [1]: negative outcomes

CN1CCC(COc2cnc(-c3cccc(Cn4nc(-c5cccc(C#N)c5)ccc4=O)c3)nc2)CC1 [tepotinib, 3-(1-{3-[5-(1-methyl-piperidin-4-ylmethoxy)-pyrimidin-2-yl]-benzyl}-6-oxo-1,6-dihydro-pyridazin-3-yl)-benzonitrile]
acute growth inhibition [2]: resistant to inhibitory effects of tepotinib
sensitization to inhibitory effects of irradiation in vitro ([3]; concentrations known to inhibit MET phosphorylation (100 nM)): failed to sensitize glioma cells to the inhibitory effects of irradiation
sensitization to irradiation in presence of exogenous HGF ([3]; with exogenous HGF (50 ng/ml)): no sensitization to irradiation by tepotinib became apparent
synergistic effect of combination therapy on survival [4]: strongly attenuated
clonogenicity [5]: resistant to inhibitory effects of tepotinib
synergy of irradiation with tepotinib [6]: synergy was also lost
synergy of irradiation with tepotinib [7]: synergy with tepotinib was lost
long-term survivors ([8]; co-treatment group): approximately 50%
survival ([8]; combination therapy (tepotinib + 10 Gy), wildtype mice): prominent survival prolongation
outcome of rechallenge of long-term survivors with GL-261 cells ([8]; rechallenge at 90 days, followed another 50 days): all 4 animals remained asymptomatic
irradiation-induced cytokines (VEGF, ICAM-1, MMP-2/-9, IL-1a, CXCL10 etc.) ([9]; combination with irradiation): an induction upon irradiation that was attenuated by tepotinib
cytokine levels in tumor tissue lysates ([9]; tepotinib monotherapy): reduced the levels of some cytokines
invasiveness [10]: suppressed invasiveness in all cell lines without or with irradiation, except in low dose-irradiated SMA-540 cells
tumor growth inhibition and regression [11]: Tumor growth inhibition and regression of tumors by tepotinib was temporarily observed
reduction in CD31 immunoreactivity ([12]; combination arm (tepotinib + radiotherapy)): 2.8 fold
Ki-67-positive cells [12, 14]: strong decrease of Ki-67-positive cells
mice alive and free from tumor at day 80 [12, 14]: three
survival ([12]; combination with radiotherapy (single dose 12 Gy)): around 60 days
survival ([12]; monotherapy): around 20 days
reduction in CD31 immunoreactivity ([12]; monotherapy arm): 1.8 fold
percentage of Ki-67-stained nuclei ([12]; monotherapy group): remained unaffected
effect on survival ([12]; tepotinib alone, 100 mg/kg daily): Neither tepotinib alone nor radiotherapy alone had a significant effect on survival
mice alive and free from tumor at day 80 ([12]; tepotinib group): one
tumor growth inhibition and regression [13]: Tumor growth inhibition and regression of tumors by tepotinib was temporarily observed
